Entries after “also recorded” stand apart in the source; their conditions may differ.
Legend:
[1] = test system: E. coli W3110; conditions: Test 2, culture covered with equal volume of solvent
Procedure: First a preculture comprising 20 ml of LB medium in a 100-ml baffle flask was inoculated with a cryoculture of the corresponding strain. The culture was cultured overnight at 37° C. with shaking at 200 rpm and was used on the next day, to inoculate an identical main culture to an OD of 0.2. The main cultures (each 30 mL of LB medium) were then incubated further under the same conditions. At an OD of 0.4 to 0.5, the main culture was covered in each case with equal volumes (30 ml) of solvent and was then incubated further.
For determination of the number of CFUs (colony-forming units), in the next tests 0.1-ml samples were taken and were diluted in sterile 0.9% NaCl solution. Suitable dilution steps were plated out on LB-agar plates. After incubation at 34° C. overnight, the colonies that had formed were counted and the CFUs were determined.
In this case two different concentrations of oleic acid were used and the volume was adjusted by adding the corresponding amount of LAME (lauric acid methyl ester).
In this case various amounts of an unsaturated fatty acid were compared with an unsaturated fatty acid with respect to their toxicity when used as liquid cation exchanger. […] The volumes of the various cation exchangers were compared with LAME. The number of CFUs was determined at the start, after 4.5 h and after 24 h.

[2] = test system: E. coli BL21(DE3); test: CFU determination, toxicity of liquid cation exchangers (Example 2); conditions: for Number of CFUs after 22 or 24 h relative to t = 0 h: Escherichia coli
Description: 50% DEHPA or lauric acid (15%), in each case dissolved in LAME and with equimolar or 25 mol % loading with ALAME, as liquid cation exchanger, was contacted with an E. coli BL21 (DE3) strain and the influence of these two compounds on the strain's ability to form colonies, expressed in CFUs, was investigated.

[3] = test system: E. coli W3110; test: CFU determination, lowering ALAME toxicity by contacting with a liquid cation exchanger (Example 3); assay type: cell-based; conditions: ALAME 0.2% (w/v) dissolved in aqueous systems
[4] = test system: ALA and ALAME producing E. coli strain BL21 (DE3) T1r pBT10 pACYC:Duet[TAcv]; test: Oxygen transfer rate (OTR) during biotransformation with various ion exchangers (Example 4); assay type: cell-based; conditions: 150 mL lauric acid methyl ester with ion exchanger (10% w/w) added to the fermentation broth
Procedure: The biotransformation of lauric acid methyl ester to aminolauric acid methyl ester was tested in the 8-fold parallel fermentation system of DasGip with various ion exchangers.
1 L reactors were used for the fermentation. The pH probes were calibrated by means of a two-point calibration with standard solutions of pH 4.0 and pH 7.0. The reactors were filled with 300 mL water and were autoclaved for 20 min at 121° C., to ensure sterility. Then the pO2 probes were polarized overnight (for at least 6 h). On the next morning, the water was removed under the clean bench and was replaced with high-cell-density medium with 50 mg/L kanamycin and 34 mg/L chloramphenicol. Next the pO2 probes were calibrated with a single-point calibration (stirrer: 600 rpm/gassing: 10 sL/h air) and the feed, correcting-agent and induction-agent sections were cleaned by Clean-in-Place. For this, the hoses were rinsed with 70% ethanol, then with 1 M NaOH, then with sterile deionized water and finally were filled with the respective media.
The ALA and ALAME producing E. coli strain BL21 (DE3) T1r pBT10 pACYC:Duet[TAcv] was first grown from cryoculture in LB medium (25 mL in a 100 mL baffle flask) with 50 mg/L kanamycin and 34 mg/L chloramphenicol overnight at 37° C. and 200 rpm for approx. 18 h.
The 3 cultures were combined in a shaking flask and the optical density was determined as 7.2. For inoculating the reactors at an optical density of 0.1, in each case 4.2 mL was taken up in a 5 mL syringe and the reactors were inoculated by cannula through a septum.
The experiment carried out can be divided into two phases, growing, in which the cells are to reach a specified optical density, and the subsequent biotransformation, in which the expression of the genes necessary for the biotechnological processes of production of ALAME was induced. The pH values were adjusted on one side with ammonia (12.5%) to pH 6.8. During growing and biotransformation, the dissolved oxygen (DO) in the culture was controlled at 30% by means of the stirrer rotary speed and the gassing rate. Fermentation was carried out as fed batch, wherein feed start, 5 g/Lh glucose feed (500 g/L glucose with 1% MgSO4*7H2O and 2.2% NH4Cl), was triggered by a DO peak. […] Expression of transaminase was induced 2 h after feed start by the automatic addition of IPTG (1 mM). Induction of the alk-genes was effected by manual addition of DCPK (0.025% v/v) 10 h after feed start. The optical density of the culture broths was determined before the start of biotransformation.
The biotransformation phase started 14 h after feed start. For this, 150 mL of a mixture of lauric acid methyl ester and the respective ion exchanger (10% w/w) were added as batch to the fermentation broth. Di(2-ethylhexyl-)phosphoric acid (DEHPA), lauric acid, oleic acid, palmitic acid, palmitoleic acid, stearic acid and a mixture of free fatty acids from the saponification of globe thistle oil were used as ion exchangers. In order to make an amino group donor available for the transaminase, 10.7 mL of an alanine solution (125 g/L) was added to the fermentation broth simultaneously with addition of the organic phase. For sampling, 2 mL of fermentation broth was taken from the vessel and a portion of this was diluted 1/20 in an acetone-HCl mixture (c(HCl)=0.1 mol/L) and extracted. Samples were taken from all 8 reactors at 1.25 h, 3 h, 5 h, 20 h, 22 h and […] after the start of biotransformation. The oxygen transfer rate (OTR) and carbon transfer rate (CTR) were determined during the fermentation by exhaust gas analysis on the DasGip systems. The fermentation was ended 22 h after the start of biotransformation.

[5] = test system: E. coli W3110; test: CFU determination, toxicity of the solvent LAME (Example 1)
Procedure: Before the determination of CFUs could be undertaken, an LB plate (10 g/L peptone from casein, 5 g/L yeast extract, 10 g/L NaCl) was streaked with E. coli BW3110 and incubated for 24 h. In the evening of the next day, a preculture of this previously streaked plate was inoculated. […] On the next day the preculture with an OD600 of 0.2 was inoculated in 200 mL of M9 medium (Na2HPO4 6.79 g/L; KH2PO4 3.0 g/L; NaCl 0.5 g/L; NH4Cl 1 g/L; 1 mL/L trace element solution, pH 7.4. Trace element solution: HCl 37% (=455.8 g/L) 36.50 g/L; MnCl2*7H2O 1.91 g/L; ZnSO4*7H2O 1.87 g/L; Na-EDTA*2H2O (Titriplex III) 0.84 g/L; H3BO3 0.30 g/L; Na2MoO4*2H2O 0.25 g/L; CaCl2*2H2O 4.70 g/L; FeSO4*7H2O 17.80 g/L; CuCl2*2H2O 0.15 g/L) with 3% glucose (w/v) and incubated for approx. 20 h. After incubation of the main culture, the cells were harvested, centrifuged at 5258 g and 4° C. for 10 min and, with an OD600 of 30, were resuspended in 10 mL of 50 mM Kpi buffer at pH 7.4 (or 25 mM HEPES buffer pH 7.4, when CFU determinations with ALAME were carried out). Both buffer solutions used contained 5% glucose (w/v). Then the bacterial suspension was transferred to the shaking flasks and the solutions of the respective substances were added. After mixing by swirling the flask, 100 μL of the suspension was withdrawn by pipette and put into 900 μL of prepared sterile saline. This corresponded to sampling at time point t0. The mixtures were then incubated at 250 rpm and 30° C. The CFUs were determined over a period of 22 h. First the samples were taken at time points t0, t3, t6 and t22. For some mixtures another sampling time point t1.5 was added and furthermore another additional dilution series was plated out, in order to minimize deviations.
The OD600 was 60. The cells were resuspended in 10 mL Kpi buffer and then mixed in the flask with 5 mL LAME 98% (w/w). One dilution step per assay was plated out.

| Compound | Number of CFUs after 22 or 24 h relative to t = 0 h [2] | course of the OTR after addition of the ion exchanger [4] | toxicity to cells concluded from the OTR [4] | further results |
| --- | --- | --- | --- | --- |
| CCCCC(CC)C(=O)O (stereo not drawn) [2-Ethylhexanoic acid] | 0% | – | – | Number of CFUs after 22 or 24 h relative to t = 0 h [1]: 0% |
| COC(=O)CCCCCCCCCCCN [ALAME, 12-aminolauric acid methyl ester] | – | – | – | action on bacteria [3]: bactericidal action |
| CCCCC(CC)COP(=O)(O)OCC(CC)CCCC (stereo not drawn) [DEHPA, di(2-ethylhexyl)phosphoric acid, reference compound] | 0% | drops to 0 within a short time | highly toxic to cells | – |
| CC(C)CCCCCC(=O)O [Isononanoic acid] | 0% | – | – | Number of CFUs after 22 or 24 h relative to t = 0 h [1]: 0% |
| CCCCCCCCCCCC(=O)OC [LAME, lauric acid methyl ester] | – | – | – | tolerance by the strains used ([2]; preliminary tests): tolerated well; percentage drop in the live cell count ([5]; 5 mL LAME 98% (w/w) with cells in 10 mL Kpi buffer, OD600 60, after 22 h): 30.3%; number of CFU/mL ([5]; 5 mL LAME 98% (w/w) with cells in 10 mL Kpi buffer, OD600 60, over a period of 6 h): remained constant; toxicity of LAME with respect to biotechnologically relevant microorganisms ([5]; compared with potassium phosphate buffer (Kpi) as negative control): does not have toxic action; also recorded: relatively low toxicity |
| CCCCCCCCCCCC(=O)O [Lauric acid] | 1.2% | intrusion of the OTR, but it is less pronounced | far less toxic than DEHPA | – |
| CCCCCCCC/C=C\CCCCCCCC(=O)O [oleic acid] | – | – | even lower toxicity than the saturated fatty acids | – |
| CCCCCCCCCCCCCCCC(=O)O [palmitic acid] | – | much shallower | far less toxic | – |
| CCCCCC/C=C\CCCCCCCC(=O)O [palmitoleic acid] | – | – | even lower toxicity than the saturated fatty acids | – |
| CCCCCCCCCCCCCCCCCC(=O)O [stearic acid] | – | much shallower | far less toxic | – |

From patent US9315443B2, “Liquid cation exchanger” (priority 2011, dated 2016)
